Experimental data: patent US9809562B2, “NAT10 modulators for treating or preventing laminopathies, aging and cancer” (CAMBRIDGE ENTERPRISE LIMITED, priority 2014, dated 2017)
Counter-ions that a name gives are not always drawn.

Tests used:
tubulin in U2OS cells = assay: Analysis of soluble or polymerised tubulin; assay type: cell-based, human; details: 5 μM Remodelin 16 hours
Experimental: U2OS cells pre-treated with 5 μM Remodelin for 16 hours or with 10 μM nocodazole for 8 hours, were lysed in MT Stabilization Buffer (MSB) (85 mM PIPES [pH 6.9], 1 mM EGTA, 1 mM MgCl2, 2M glycerol, 0.5% Triton with 4 μg/ml Taxol). Lysates were kept at 4° C. for 2 minutes and then centrifuged for 10 minutes at 13,000 rpm. Supernatants, representing the soluble fraction of proteins, were transferred to new tubes, and Laemmli buffer was added. Pellets, representing the polymerized fraction of proteins, were washed once in MSB without Triton, and then resuspended in Laemmli buffer. Equal amounts of lysate were loaded on a gradient gel.

[1] = system: primary MRC5 fibroblasts aged in culture; assay: Misshapen nuclei in aged MRC5 cells; assay type: cell-based, human; details: population doubling 44
Text: FIG. 10: Remodelin rescues nuclear shape of aged MRC5 cells but not WS cells in a dose dependent manner. A) Misshapen nuclei observed by DAPI staining in MRC5 aged cells in culture, at population doubling 44 (PD44) were rescued by Remodelin. B) Quantification of misshapen nuclei after increasing concentrations of Remodelin (mean of three independent experiments±s.e.m.). C) DAPI staining of non-laminopathic Werner Syndrome cells (WS) showing no nuclear shape improvement upon Remodelin treatment. D) Cell Profiler quantification of misshapen nuclei (mean of three independent experiments±s.d. n>273). Scale bars: 50 μm.
U2OS and SaOS-2 osteosarcoma cells, HeLa cervical cancer cells, A431 melanoma cells, NCI-SNU5 gastric cancer cells, MRC-5 lung fibroblast cells and Werner syndrome patient-derived SV40 fibroblast cells were grown in Dulbecco's modified Eagle medium (DMEM, Sigma-Aldrich) supplemented with 10% fetal bovine serum (BioSera), 2 mM L-glutamine, 100 U per ml penicillin, 100 μg ml^−1 streptomycin. Normal skin primary fibroblasts GM03440 and Hutchinson Gilford Progeria Syndrome (HGPS) skin primary fibroblasts AG11498 and AG06297 were purchased from Coriell Cell Repositories and used between passage number 9-12 and 20-23 respectively. Cells were grown in DMEM supplemented as above. […] Cells were analysed 48 to 72 hours after transfection.

[2] = system: HGPS cells (γH2AX, autophosphorylated ATM); assay: DNA damage markers in HGPS cells (western blotting, IF); assay type: cell-based, human; details: Remodelin 1 μM
Experimental: The following KAT and KDAC inhibitors were used in the nuclear shape rescue screen, incubating cells with the molecules for 16 hours: trichostatin A (1 μM), sodium butyrate (5 mM), tubacin (10 μM), SAHA (5 μM), curcumin (10 μM), garcinol (50 μM), anacardic acid (1 μM), MB-3 (5 μM), 4-(4-chlorophenyl)-2-(2-cyclopentylidenehydrazinyl)thiazole (Compound 2) (50 μM), 4-(4-chlorophenyl)-2-(2-cyclopentylidene-1-(prop-2-yn-1-yl)hydrazinyl)thiazole (Compound 3) (50 μM) and cyclopentylidene-[4-(4-cyanophenyl)thiazol-2-yl)hydrazine (Compound 1) (Remodelin) (10 to 50 μM). For HGPS cellular fitness assays, Remodelin was incubated at 1 μM for 1 to 10 days, renewing the medium every 3 days. For long-term senescence assay, cells were kept and passaged in medium containing 1 μM Remodelin or DMSO only for 12 population doublings. Senescence was assessed after 8 days of Remodelin treatment when cells were at Population Doubling 12, and then after several weeks of Remodelin treatment, when cells reached Population Doubling 24 using the Senescence β-Galactosidase Staining Kit #9860 from Cell Signaling. […]
Total cell extracts were prepared by scraping cells in SDS lysis buffer (4% SDS, 20% glycerol, and 120 mM Tris-HCl, pH 6.8), boiling for 5 minutes at 95° C., followed by 10 strokes through a 25-gauge needle. […] Detection and quantification was performed with an imager (Odyssey; LI-COR Biosciences). […]

[3] = In vivo toxicity, body weight change; details: mice, oral daily dose for 14 days

| Compound | tubulin assembly into polymers (tubulin in U2OS cells) | misshapen nuclei of aged MRC5 cells [1] | steady-state DNA damage markers (γH2AX, autophosphorylated ATM) [2] | tolerability (body weight change) [3] |
| --- | --- | --- | --- | --- |
| N#Cc1ccc(-c2csc(NN=C3CCCC3)n2)cc1 [Compound 1, 4-(4-Cyanophenyl)-2-(2-cyclopentylidenehydrazinyl)thiazole] | did not affect Golgi apparatus integrity (FIG. 13C) or tubulin assembly into polymers | also had this effect on primary MRC5 fibroblasts aged in culture | decreased steady-state levels of γH2AX and autophosphorylated ATM | – |
| Clc1ccc(-c2csc(NN=C3CCCC3)n2)cc1 [Compound 2, 4-(4-Chlorophenyl)-2-(2-cyclopentylidenehydrazinyl)thiazole Hydrochloride Salt] | – | – | – | well tolerated orally, up to high doses of 400 mg/kg/day, without significant decrease of body weight |
